Assay results as given in paper PMC11905624 (BMC Biology, 2025).
Peptide text beside a SMILES is read from it.

What was measured:
B2 receptor = target: T1, B2 receptor (Homo sapiens, UniProt P30411); experiment: Intracellular calcium flux in HaCaT cells; type: cell-based
T1 construct: endogenous in cells; host or cells: HaCaT
T1 sequence (P30411 1-391): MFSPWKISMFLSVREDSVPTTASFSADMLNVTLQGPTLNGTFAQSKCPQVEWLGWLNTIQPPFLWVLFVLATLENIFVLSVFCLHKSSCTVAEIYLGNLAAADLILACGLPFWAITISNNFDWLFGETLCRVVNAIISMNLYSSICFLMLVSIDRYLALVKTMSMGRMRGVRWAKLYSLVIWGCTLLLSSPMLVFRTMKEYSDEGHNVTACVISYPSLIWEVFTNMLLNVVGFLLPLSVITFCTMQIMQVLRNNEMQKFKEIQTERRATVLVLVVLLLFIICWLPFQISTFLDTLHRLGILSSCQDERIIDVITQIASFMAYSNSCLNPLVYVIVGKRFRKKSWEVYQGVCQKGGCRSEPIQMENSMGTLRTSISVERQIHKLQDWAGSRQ
Description: HaCaT cells were seeded onto 96-well plates and, upon reaching full confluence, were starved for 3 h (medium without FBS). […] After 1.5 h in 37 °C, fluorescence intensity (485/525 nm) was recorded continuously for 5 min using FlexStation 3 (Molecular Devices). […] FBS (3%) served as positive control. Results were calculated as area under the curves of RFU fold change from the signal recorded at baseline and adjusted to % of maximum response (FBS) curve. Non-linear regression analyses were performed to generate dose–response curves and calculate EC50 values.

pKLK = target: T2, pKLK (Homo sapiens, UniProt P03952); experiment: BK release from HMWK by pKLK, HPLC; type: biochemical; conditions: 5 µg HMWK, 500 nM pKLK, 24 h, 50 mM Tris-HCl pH 7.5, 37 °C
T2 construct: purchased Merck
T2 sequence (P03952 20-638): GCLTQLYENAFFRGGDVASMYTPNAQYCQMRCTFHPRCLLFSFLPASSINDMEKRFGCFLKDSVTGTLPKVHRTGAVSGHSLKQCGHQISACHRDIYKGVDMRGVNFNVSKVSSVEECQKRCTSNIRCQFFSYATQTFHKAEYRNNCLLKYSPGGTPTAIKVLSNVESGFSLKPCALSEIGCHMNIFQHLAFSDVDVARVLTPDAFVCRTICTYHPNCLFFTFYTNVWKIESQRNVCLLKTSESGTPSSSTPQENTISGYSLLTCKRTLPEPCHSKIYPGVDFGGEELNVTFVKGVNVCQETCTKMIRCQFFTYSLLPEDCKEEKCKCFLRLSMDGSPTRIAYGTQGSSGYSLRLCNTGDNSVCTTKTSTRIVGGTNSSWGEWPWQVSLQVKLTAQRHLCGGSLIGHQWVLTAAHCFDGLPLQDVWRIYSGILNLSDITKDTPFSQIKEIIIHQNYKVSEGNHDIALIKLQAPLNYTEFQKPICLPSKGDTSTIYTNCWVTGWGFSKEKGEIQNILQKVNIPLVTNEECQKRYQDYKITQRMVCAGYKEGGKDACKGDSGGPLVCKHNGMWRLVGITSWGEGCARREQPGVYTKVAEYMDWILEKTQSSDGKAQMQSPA
Description: Ten µg of BK or cBK (ProImmune) were incubated with 15 ng of CPM (RnD; 1 h in 50 mM MES buffer pH 6.0 containing 5 mM CaCl2, 0.2% Triton-X100), 20 ng of NEP (RnD; 2 h in 50 mM HEPES buffer pH 7.4 containing 150 mM NaCl, 0,01% Triton-X100) or 40 ng of ACE1 (Merck; 4 h in 20 mM HEPES buffer containing 100 µM ZnCl2, 300 mM KCl) in final volume of 11 µl in 37 °C. Substrate controls were incubated in parallel without enzymes. Five µg of HMWK (Merck) were incubated with 500 nM of pKLK (Merck; 24 h in 50 mM Tris–HCl buffer pH 7.5 containing 100 mM NaCl, 0.01% Triton-X100) in final volume of 35 µl in 37 °C. Reactions were stopped with addition of TFA, TCA, EDTA and inhibitors for ACE1 (1 µM lisinopril), NEP (4 mM thiorphan), pKLK (1 mM AEBSF), and analysed via HPLC.
Absorbance chromatograms (215 nm) were evaluated with the LabSolutions software.

## N=C(N)NCCC[C@H](NC(=O)[C@H](Cc1ccccc1)NC(=O)[C@@H]1CCCN1C(=O)[C@H](CO)NC(=O)[C@H](Cc1ccccc1)NC(=O)CNC(=O)[C@@H]1CCCN1C(=O)[C@@H]1CCCN1C(=O)[C@H](CCCNC(=N)N)NC(N)=O)C(=O)O [cBK] (HELM PEPTIDE1{[N=C(N)NCCC[C@H](NC(N)=O)C(=O)[*:2]].P.P.G.F.S.P.F.R}$$$$V2.0)
B2 receptor; 100 nM peptide, calcium sensitive dye
  B2-stimulatory potential lower than the response elicited by native BK: over 25%
B2 receptor; Calcium Dye 5, AUC of RFU fold change as % of maximum response (FBS), n = 6, mean ± SEM
  EC50: 0.02655 ± 1.1e-06 µM

B1: carbamylated HMWK: carbamylated high molecular weight kininogen (protein, UniProt P01042 19-644, looked up)
Kininogen-1: QESQSEEIDCNDKDLFKAVDAALKKYNSQNQSNNQFVLYRITEATKTVGSDTFYSFKYEIKEGDCPVQSGKTWQDCEYKDAAKAATGECTATVGKRSSTKFSVATQTCQITPAEGPVVTAQYDCLGCVHPISTQSPDLEPILRHGIQYFNNNTQHSSLFMLNEVKRAQRQVVAGLNFRITYSIVQTNCSKENFLFLTPDCKSLWNGDTGECTDNAYIDIQLRIASFSQNCDIYPGKDFVQPPTKICVGCPRDIPTNSPELEETLTHTITKLNAENNATFYFKIDNVKKARVQVVAGKKYFIDFVARETTCSKESNEELTESCETKKLGQSLDCNAEVYVVPWEKKIYPTVNCQPLGMISLMKRPPGFSPFRSSRIGEIKEETTVSPPHTSMAPAQDEERDSGKEQGHTRRHDWGHEKQRKHNLGHGHKHERDQGHGHQRGHGLGHGHEQQHGLGHGHKFKLDDDLEHQGGHVLDHGHKHKHGHGHGKHKNKGKKNGKHNGWKTEHLASSSEDSTTPSAQTQEKTEGPTPIPSLAKPGVTVTFSDFQDSDLIATMMPPISPAPIQSDDDWIPDIQIDPNGLSFNPISDFPDTTSPKCPGRPWKSVSEINPTTQMKESYYFDLTDGLS
modifications: High molecular weight kininogen carbamylated
pKLK
  pKLK-driven generation of BK: abolishes
